Experimental data taken from patent publication US8012963B2, “3,4-dihydro-2H-benzo[1,4]oxazine and thiazine derivatives as CETP inhibitors” (Janssen Pharmaceutica N.V., priority 2006, dated 2011).
Several values for one entry are separate records, joined by “and”; a condition that tells them apart may be missing. Identical values can stand only once.

Target: T1, CETP (Homo sapiens, UniProt P11597)
T1 construct: from tissue; host or cells: human plasma from normal volunteers
T1 sequence (P11597 18-493): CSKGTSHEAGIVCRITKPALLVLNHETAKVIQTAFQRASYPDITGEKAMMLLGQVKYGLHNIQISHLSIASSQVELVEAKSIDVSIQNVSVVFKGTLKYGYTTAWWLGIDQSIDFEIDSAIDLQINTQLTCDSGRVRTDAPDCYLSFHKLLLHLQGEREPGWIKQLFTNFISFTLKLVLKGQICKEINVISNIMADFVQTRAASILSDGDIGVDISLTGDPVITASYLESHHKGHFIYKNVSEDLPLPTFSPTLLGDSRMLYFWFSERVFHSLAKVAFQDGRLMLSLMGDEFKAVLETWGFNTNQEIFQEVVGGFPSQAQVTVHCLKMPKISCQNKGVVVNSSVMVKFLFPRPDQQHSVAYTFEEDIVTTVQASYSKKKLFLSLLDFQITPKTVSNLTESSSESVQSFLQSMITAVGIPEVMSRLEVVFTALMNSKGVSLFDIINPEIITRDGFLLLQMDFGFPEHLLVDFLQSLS
Experiment: CETP in vitro assay ([3H]CE-HDL transfer, Amersham kit TRKQ7005; modified protocol in human plasma)
Format: biochemical
Conditions: multiple values = multiple measurements; for inhibition at 1 µM / % Inhibition @ 1 μM: 1 μM compound
Experimental: The CETP inhibitory activity of the compounds was determined using a commercially available kit from Amersham Biosciences (Catalog #TRKQ7005).
For the measurement of inhibitory activity in human plasma, a modified protocol (Connolly, D. T. et al., Biochemistry, 39 13870-13879, 2000) was used. Briefly, 80 μl of human plasma (obtained from normal volunteers), approximately 25 μg/ml (200) of [^3H]CE-HDL (Amersham Biosciences from kit TRKQ7005) and 1 μl of compound dissolved in DMSO was incubated for at least 4 hrs at 37° C. and non-specific transfer was determined by incubating a corresponding plate at 4° C. (blank). After the incubation period, 100 of a solution of 1% Dextralip 50/0.5M MgCl2, pH 7.4 was added, vortexed and incubated at room temperature for 10 min. The plate was then centrifuged for 30 min at 10° C. at 3000 rpm in a Sorvall RT6000B centrifuge. Fifty microliters of the supernatant was transferred to a Picoplate (Packard) containing 100 μl of Microscint 40 (Perkin Elmer) and mixed for 30 min using a plate mixer. The radioactivity was counted using a TopCount (Perkin Elmer) and the % control was determined in the samples using the following formula: % transfer relative to vehicle controls (% control)=[cpm blank-cpm test]/cpm blank/cpm control]×100. IC50s were calculated from plots of the % control versus compound concentration.
A variety of example compounds have been made and tested, with a range of in vitro results. Below, in Table 2, are representative compounds and the corresponding data; in some cases, where multiple IC50's are shown, multiple measurements were taken. Naturally, different compounds in Formula (I), (Ia), (Ib) and (Ic) may have not activities identical to any one compound below.

COC(=O)NCCN1c2cccc(-c3cccc(OC(F)(F)F)c3)c2OCC1c1cccc(OC(F)(F)C(F)F)c1 (stereo not shown) [Compound 41, {2-[3-[3-(1,1,2,2-Tetrafluoro-ethoxy)-phenyl]-8-(3-trifluoromethoxy-phenyl)-2,3-dihydro-benzo[1,4]oxazin-4-yl]-ethyl}-carbamic acid methyl ester]
inhibition at 1 µM: 2%

COC(=O)N(C)CCN1c2cccc(-c3cccc(OC(F)(F)F)c3)c2OCC1c1cccc(OC(F)(F)C(F)F)c1 (stereo not shown) [Compound 42, Methyl-{2-[3-[3-(1,1,2,2-tetrafluoro-ethoxy)-phenyl]-8-(3-trifluoromethoxy-phenyl)-2,3-dihydro-benzo[1,4]oxazin-4-yl]-ethyl}-carbamic acid methyl ester]
inhibition at 1 µM: 8%

CS(=O)(=O)NCCN1c2cccc(-c3cccc(OC(F)(F)F)c3)c2OCC1c1cccc(OC(F)(F)C(F)F)c1 (stereo not shown) [Compound 43, N-{2-[3-[3-(1,1,2,2-Tetrafluoro-ethoxy)-phenyl]-8-(3-trifluoromethoxy-phenyl)-2,3-dihydro-benzo[1,4]oxazin-4-yl]-ethyl}-methanesulfonamide]
inhibition at 1 µM: 0%

CN(CCN1c2cccc(-c3cccc(OC(F)(F)F)c3)c2OCC1c1cccc(OC(F)(F)C(F)F)c1)S(C)(=O)=O (stereo not shown) [Compound 44, N-Methyl-N-{2-[3-[3-(1,1,2,2-tetrafluoro-ethoxy)-phenyl]-8-(3-trifluoromethoxy-phenyl)-2,3-dihydro-benzo[1,4]oxazin-4-yl]-ethyl}-methanesulfonamide]
inhibition at 1 µM: 0%

CC1(C)OC[C@H](CN2c3cccc(-c4cccc(OC(F)(F)F)c4)c3OC[C@@H]2c2cccc(OC(F)(F)C(F)F)c2)O1 [Compound 45, 2H-1,4-Benzoxazine, 4-[[(4S)-2,2-dimethyl-1,3-dioxolan-4-yl]methyl]-3,4-dihydro-3-[3-(1,1,2,2-tetrafluoroethoxy)phenyl]-8-[3-(trifluoromethoxy)phenyl]-, (3S)—]
inhibition at 1 µM: 25%

CC1(C)OC[C@H](CN2c3cccc(-c4cccc(OC(F)(F)F)c4)c3OC[C@H]2c2cccc(OC(F)(F)C(F)F)c2)O1 [Compound 46, 2H-1,4-Benzoxazine, 4-[[(4S)-2,2-dimethyl-1,3-dioxolan-4-yl]methyl]-3,4-dihydro-3-[3-(1,1,2,2-tetrafluoroethoxy)phenyl]-8-[3-(trifluoromethoxy)phenyl]-, (3R)—]
inhibition at 1 µM: 20%

OC[C@@H](O)CN1c2cccc(-c3cccc(OC(F)(F)F)c3)c2OC[C@@H]1c1cccc(OC(F)(F)C(F)F)c1 [Compound 47, 1,2-Propanediol, 3-[(3S)-2,3-dihydro-3-[3-(1,1,2,2-tetrafluoroethoxy)phenyl]-8-[3-(trifluoromethoxy)phenyl]-4H-1,4-benzoxazin-4-yl]-, (2S)—]
inhibition at 1 µM: 27%

OC[C@@H](O)CN1c2cccc(-c3cccc(OC(F)(F)F)c3)c2OC[C@H]1c1cccc(OC(F)(F)C(F)F)c1 [Compound 48, 1,2-Propanediol, 3-[(3R)-2,3-dihydro-3-[3-(1,1,2,2-tetrafluoroethoxy)phenyl]-8-[3-(trifluoromethoxy)phenyl]-4H-1,4-benzoxazin-4-yl]-, (2S)—]
inhibition at 1 µM: 13%

CC(C)(O)CN1c2cccc(-c3cccc(OC(F)(F)F)c3)c2OCC1c1cccc(OC(F)(F)C(F)F)c1 (stereo not shown) [Compound 49, 2-Methyl-1-[3-[3-(1,1,2,2-tetrafluoro-ethoxy)-phenyl]-8-(3-trifluoromethoxy-phenyl)-2,3-dihydro-benzo[1,4]oxazin-4-yl]-propan-2-ol]
inhibition at 1 µM: 34% | % Inhibition @ 1 μM: 24% | IC50: 560 nM

C=CCC1COc2c(-c3cccc(OC(F)(F)F)c3)cccc2N1CC(O)C(F)(F)F (stereo not shown) [Compound 50, 3-[3-Allyl-8-(3-trifluoromethoxy-phenyl)-2,3-dihydro-benzo[1,4]oxazin-4-yl]-1,1,1-trifluoro-propan-2-ol]
% Inhibition @ 1 μM: 10%

C=CCC1COc2c(-c3cccc(OC(F)(F)F)c3)cccc2N1CC(O)C(F)(F)F (stereo not shown) [Compound 51, 3-[3-Allyl-8-(3-trifluoromethoxy-phenyl)-2,3-dihydro-benzo[1,4]oxazin-4-yl]-1,1,1-trifluoro-propan-2-ol]
% Inhibition @ 1 μM: 0%

OCCCC1COc2c(-c3cccc(OC(F)(F)F)c3)cccc2N1CC(O)C(F)(F)F (stereo not shown) [Compound 52, 3-[4-(3,3,3-Trifluoro-2-hydroxy-propyl)-8-(3-trifluoromethoxy-phenyl)-3,4-dihydro-2H-benzo[1,4]oxazin-3-yl]-propan-1-ol]
% Inhibition @ 1 μM: 13%

OCCCC1COc2c(-c3cccc(OC(F)(F)F)c3)cccc2N1CC(O)C(F)(F)F (stereo not shown) [Compound 54, 3-[4-(3,3,3-Trifluoro-2-hydroxy-propyl)-8-(3-trifluoromethoxy-phenyl)-3,4-dihydro-2H-benzo[1,4]oxazin-3-yl]-propan-1-ol]
% Inhibition @ 1 μM: 1%

COCCCC1COc2c(-c3cccc(OC(F)(F)F)c3)cccc2N1CC(O)C(F)(F)F (stereo not shown) [Compound 55]
inhibition at 1 µM: 0%

CC(C)(C)C(=O)CC1COc2c(-c3cccc(OC(F)(F)F)c3)cccc2N1CC(O)C(F)(F)F (stereo not shown) [Compound 56, 3,3-Dimethyl-1-[4-(3,3,3-trifluoro-2-hydroxy-propyl)-8-(3-trifluoromethoxy-phenyl)-3,4-dihydro-2H-benzo[1,4]oxazin-3-yl]-butan-2-one]
% Inhibition @ 1 μM: 9%

CC(C)(C)C(=O)CC1COc2c(-c3cccc(OC(F)(F)F)c3)cccc2N1CC(O)C(F)(F)F (stereo not shown) [Compound 57, 3,3-Dimethyl-1-[4-(3,3,3-trifluoro-2-hydroxy-propyl)-8-(3-trifluoromethoxy-phenyl)-3,4-dihydro-2H-benzo[1,4]oxazin-3-yl]-butan-2-one]
% Inhibition @ 1 μM: 0%

CCc1ccc(C2COc3c(-c4cccc(OC(F)(F)F)c4)cccc3N2CC(O)C(F)(F)F)s1 (stereo not shown) [Compound 58, 3-[3-(5-Ethyl-thiophen-2-yl)-8-(3-trifluoromethoxy-phenyl)-2,3-dihydro-benzo[1,4]oxazin-4-yl]-1,1,1-trifluoro-propan-2-ol]
% Inhibition @ 1 μM: 60% and 96% | IC50: 502 nM

CCc1ccc(C2COc3c(-c4cccc(OC(F)(F)F)c4)cccc3N2CC(O)C(F)(F)F)s1 (stereo not shown) [Compound 59, 3-[3-(5-Ethyl-thiophen-2-yl)-8-(3-trifluoromethoxy-phenyl)-2,3-dihydro-benzo[1,4]oxazin-4-yl]-1,1,1-trifluoro-propan-2-ol]
% Inhibition @ 1 μM: 0%

COc1ccsc1C1COc2c(-c3cccc(OC(F)(F)F)c3)cccc2N1CC(O)C(F)(F)F (stereo not shown) [Compound 60, 1,1,1-Trifluoro-3-[3-(3-methoxy-thiophen-2-yl)-8-(3-trifluoromethoxy-phenyl)-2,3-dihydro-benzo[1,4]oxazin-4-yl]-propan-2-ol]
% Inhibition @ 1 μM: 0%

COc1ccsc1C1COc2c(-c3cccc(OC(F)(F)F)c3)cccc2N1CC(O)C(F)(F)F (stereo not shown) [Compound 61, 1,1,1-Trifluoro-3-[3-(3-methoxy-thiophen-2-yl)-8-(3-trifluoromethoxy-phenyl)-2,3-dihydro-benzo[1,4]oxazin-4-yl]-propan-2-ol]
% Inhibition @ 1 μM: 3%

COc1ccc(C2COc3c(-c4cccc(OC(F)(F)F)c4)cccc3N2CC(O)C(F)(F)F)s1 (stereo not shown) [Compound 62, 1,1,1-Trifluoro-3-[3-(5-methoxy-thiophen-2-yl)-8-(3-trifluoromethoxy-phenyl)-2,3-dihydro-benzo[1,4]oxazin-4-yl]-propan-2-ol]
inhibition at 1 µM: 19%

COc1ccc(C2COc3c(-c4cccc(OC(F)(F)F)c4)cccc3N2CC(O)C(F)(F)F)s1 (stereo not shown) [Compound 63, 1,1,1-Trifluoro-3-[3-(5-methoxy-thiophen-2-yl)-8-(3-trifluoromethoxy-phenyl)-2,3-dihydro-benzo[1,4]oxazin-4-yl]-propan-2-ol]
% Inhibition @ 1 μM: 17%

OC(CF)CN1c2cccc(-c3cccc(OC(F)(F)F)c3)c2OCC1c1cccc(OC(F)(F)C(F)F)c1 (stereo not shown) [Compound 68, 1-Fluoro-3-[3-[3-(1,1,2,2-tetrafluoro-ethoxy)-phenyl]-8-(3-trifluoromethoxy-phenyl)-2,3-dihydro-benzo[1,4]oxazin-4-yl]-propan-2-ol]
% Inhibition @ 1 μM: 79% and 91% | IC50: 127 nM

OC(CF)CN1c2cccc(-c3cccc(OC(F)(F)F)c3)c2OCC1c1cccc(OC(F)(F)C(F)F)c1 (stereo not shown) [Compound 69, 1-Fluoro-3-[3-[3-(1,1,2,2-tetrafluoro-ethoxy)-phenyl]-8-(3-trifluoromethoxy-phenyl)-2,3-dihydro-benzo[1,4]oxazin-4-yl]-propan-2-ol]
% Inhibition @ 1 μM: 50%
